Measured values published in patent US20240115527A1, “CXCR1/CXCR2 INHIBITORS FOR USE IN TREATING MYELOFIBROSIS” (Icahn School of Medicine at Mount Sinai, priority 2020, published 2024).

Test system: MF CD34+ cells
Assay: Clonal assays of MF CD34+ cells; JAK2V617F allele status of picked hematopoietic colonies
Type: cell-based, human
Protocol: Individual hematopoietic colonies were randomly picked from clonal assays of CD34^+ cells from 6 MF cases and the JAK2V617F allele status was determined.
IL-8 alone increased the absolute numbers of JAK2V617F+ colonies, and the addition of Ladarixin reduced the numbers of JAK2V617F positive colonies stimulated by IL-8 (Tables 1-3).

[1] = MF1 CD34+ cells, IL-8 10 ng, no ladarixin
[2] = MF1 CD34+ cells, IL-8 20 ng, no ladarixin
[3] = MF1 CD34+ cells, IL-8 50 ng, no ladarixin
[4] = MF1 CD34+ cells, IL-8 100 ng, no ladarixin
[5] = MF2 CD34+ cells, IL-8 10 ng, no ladarixin
[6] = MF2 CD34+ cells, IL-8 20 ng, no ladarixin
[7] = MF2 CD34+ cells, IL-8 50 ng, no ladarixin
[8] = MF2 CD34+ cells, IL-8 100 ng, no ladarixin
[9] = MF3 CD34+ cells, IL-8 10 ng, no ladarixin
[10] = MF3 CD34+ cells, IL-8 20 ng, no ladarixin
[11] = MF3 CD34+ cells, IL-8 50 ng, no ladarixin
[12] = MF3 CD34+ cells, IL-8 100 ng, no ladarixin
[13] = MF4 CD34+ cells, IL-8 10 ng, no ladarixin

IL-8: pro-inflammatory cytokine; CXCR1 and CXCR2 are its receptors
absolute numbers of JAK2V617F+ colonies (IL-8 alone, 6 MF cases): increased
number of colonies, Heter (JAK2V617F heterozygous) [1]: 36
number of colonies, Homo (JAK2V617F homozygous) [1]: 0
number of colonies, WT (JAK2 wild type) [1]: 18
number of colonies, Heter (JAK2V617F heterozygous) [2]: 48
number of colonies, Homo (JAK2V617F homozygous) [2]: 0
number of colonies, WT (JAK2 wild type) [2]: 17
number of colonies, Heter (JAK2V617F heterozygous) [3]: 52
number of colonies, Homo (JAK2V617F homozygous) [3]: 0
number of colonies, WT (JAK2 wild type) [3]: 21
number of colonies, Heter (JAK2V617F heterozygous) [4]: 68
number of colonies, Homo (JAK2V617F homozygous) [4]: 0
number of colonies, WT (JAK2 wild type) [4]: 0
number of colonies, Heter (JAK2V617F heterozygous) [5]: 0
number of colonies, Homo (JAK2V617F homozygous) [5]: 0
number of colonies, WT (JAK2 wild type) [5]: 44
number of colonies, Heter (JAK2V617F heterozygous) [6]: 3
number of colonies, Homo (JAK2V617F homozygous) [6]: 0
number of colonies, WT (JAK2 wild type) [6]: 38
number of colonies, Heter (JAK2V617F heterozygous) [7]: 7
number of colonies, Homo (JAK2V617F homozygous) [7]: 0
number of colonies, WT (JAK2 wild type) [7]: 41
number of colonies, Heter (JAK2V617F heterozygous) [8]: 3
number of colonies, Homo (JAK2V617F homozygous) [8]: 0
number of colonies, WT (JAK2 wild type) [8]: 52
number of colonies, Heter (JAK2V617F heterozygous) [9]: 27
number of colonies, Homo (JAK2V617F homozygous) [9]: 80
number of colonies, WT (JAK2 wild type) [9]: 36
number of colonies, Heter (JAK2V617F heterozygous) [10]: 79
number of colonies, Homo (JAK2V617F homozygous) [10]: 63
number of colonies, WT (JAK2 wild type) [10]: 31
number of colonies, Heter (JAK2V617F heterozygous) [11]: 30
number of colonies, Homo (JAK2V617F homozygous) [11]: 99
number of colonies, WT (JAK2 wild type) [11]: 30
number of colonies, Heter (JAK2V617F heterozygous) [12]: 32
number of colonies, Homo (JAK2V617F homozygous) [12]: 95
number of colonies, WT (JAK2 wild type) [12]: 42
number of colonies, Heter (JAK2V617F heterozygous) [13]: 183
number of colonies, Homo (JAK2V617F homozygous) [13]: 12
number of colonies, Wild (JAK2 wild type) [13]: 0
